According to patent publication US20150344820A1, “COMPOSITIONS AND METHODS FOR BIOFILM TREATMENT” (The Procter & Gamble Company, priority 2014, published 2015):

Legend:
[1] = Dynamic surface tension at 51 ms bubble lifetime (bubble pressure tensiometer); type: physicochemical; conditions: for Surface tension reduction at dilute concentrations of KOH: KOH <1.5-2.0 M; for Surface tension reduction at dilute concentrations of KOH / Surface tension change as the KOH concentration is increased: 51 ms (FIG. 3); for Surface Tension @ 51 ms: no surfactant
Method: The dynamic surface tension of a liquid may be determined by using a tensiometer. The tensiometer may measure the dynamic surface tension of the liquid according to the bubble pressure method. The bubble pressure method includes injecting a gas, such as air, into a liquid that is to be analyzed. The gas enters the liquid through a capillary that is immersed within the liquid. The difference in pressure between the gas and the liquid is recorded at several gas flow rates. The difference in pressure for each flow rate that is required to form a bubble is proportional to the surface tension of the liquid by the Young-Laplace equation, as reproduced below: […]
where Δp is the pressure differential between the pressure inside the gas bubble and the pressure outside the gas bubble within the liquid in Newtons per square meter (N/m^2); d is the diameter of the capillary in meters (m); and σ is the surface tension of the liquid in Newtons per meter (N/m). The dynamic surface tension of the liquid is calculated for each gas flow rate using the Young-Laplace equation for each flow rate. The bubble lifetime is equal to the time elapsed between the formation of the each bubble and is recorded for each flow rate. The calculated dynamic surface tension values are plotted versus the bubble lifetime.
The method of measuring the dynamic surface tension of a liquid may generally include the steps of: (1) calibrating the tensiometer; (2) cleaning the capillary of the tensiometer; and (3) measuring the dynamic surface tension and bubble lifetime of the liquid with the tensiometer. The method of measuring the dynamic surface tension of a liquid with a tensiometer may, for example, generally follow American Society for Testing and Materials standard ASTM D3825-09.
A SITA science line t60 tensiometer, available from SITA Messetechnik GmbH (Dresden, Germany), may be used to measure the dynamic surface tension of a liquid, such as an electrolyte solution. The t60 tensiometer may be calibrated according to SITA Messetechnik instructions with the tensiometer in Calibration Mode. See SITA science line t60 Manual, p. 4, Section 12.1. The calibration is completed by placing the tip of the capillary tube of the tensiometer into about 25 mL of deionized (DI) water that is held within a glass vessel, such as a 50 mL beaker. The tip of the capillary tube should extend into the solution to the manufacturer's recommended depth that is signaled by a mark on the temperature probe of the tensiometer. The temperature of the DI water should be between about 20° C. and about 30° C.
The t60 tensiometer may then be cleaned according to SITA Messetechnik instructions with the tensiometer in Cleaning Mode. See Id., p. 20, Section 12.4. The capillary tube may first be rinsed with DI water. The cleaning is completed by placing the tip of the capillary tube of the tensiometer into about 25 mL of deionized (DI) water that is held within a glass vessel, such as a 50 mL beaker. The tip of the capillary tube should extend into the solution to the manufacturer's recommended depth that is signaled by a mark on the temperature probe of the tensiometer. The temperature of the DI water should be between about 20° C. and about 30° C. Air is rapidly bubbled through the capillary tube of the tensiometer for about two (2) minutes.
The t60 tensiometer may then be used to obtain dynamic surface tension of the liquid solution to be analyzed. The data may be obtained according to SITA Messetechnik instructions with the tensiometer in Auto-Measurement Mode. See Id., p. 18, Section 12.3. The auto-measurement is completed by placing the tip of the capillary tube of the tensiometer into about 25 mL of the liquid solution that is held within a glass vessel, such as a 50 mL beaker. The tip of the capillary tube should extend into the solution to the manufacturer's recommended depth that is signaled by a mark on the temperature probe of the tensiometer. […]

[2] = KOH solutions greater than 5M
Description: Three different N,N′-dimethylamine oxide surfactants from the same homologous series (i.e., same chemical structure except for tail length) were used to make aqueous alkali surfactant compositions having 2500 ppm surfactant and various concentrations of KOH, as shown by Tables 4, 5, and 6 below.

In the case of `CCCCB(O)O` [Butyl Boronic Acid], the “SFT (dynamic surface tension at 51 ms)” value ([1]; 1.5% surfactant, [KOH] 0) is reported as 62.3 mN/m, the “SFT (dynamic surface tension at 51 ms)” value ([1]; 1.5% surfactant, [KOH] 0.5) is reported as 71.8 mN/m and the “SFT (dynamic surface tension at 51 ms)” value ([1]; 1.5% surfactant, [KOH] 0.75) is reported as 73 mN/m. The “SFT (dynamic surface tension at 51 ms)” value ([1]; 1.5% surfactant, [KOH] 2) was 84.6 mN/m, the “SFT (dynamic surface tension at 51 ms)” value ([1]; 1.5% surfactant, [KOH] 4) was 73.5 mN/m and the “SFT (dynamic surface tension at 51 ms)” value ([1]; 1.5% surfactant, [KOH] 6.6) was 53.8 mN/m. The “SFT (dynamic surface tension at 51 ms)” value ([1]; 1.5% surfactant, [KOH] 8.7) was 43.6 mN/m.

For `CCCCCCCCCCCC[N+](C)(C)[O-]` [Dodecyl-N,N′-Dimethylamine Oxide, reference compound], the “SFT (dynamic surface tension at 51 ms)” value ([1]; 2500 ppm surfactant, KOH 0 M) was 37.7 mN/m, the “SFT (dynamic surface tension at 51 ms)” value ([1]; 2500 ppm surfactant, KOH 1 M) was 37.6 mN/m and the “SFT (dynamic surface tension at 51 ms)” value ([1]; 2500 ppm surfactant, KOH 3 M) was 65.4 mN/m. For the same compound, the “SFT (dynamic surface tension at 51 ms)” value ([1]; 2500 ppm surfactant, KOH 5 M) was 78.5 mN/m, the “Surface tension reduction at dilute concentrations of KOH” value (shortened to “Surface tension reduction”) ([1]; 2500 ppm surfactant) was “do provide some surface tension reduction” and the “Surface tension change as the KOH concentration is increased” value ([1]; 2500 ppm surfactant) was “the surface tension increases”. For the same compound, the “Solubility in KOH solutions” value [2] was “not soluble”.

For `[K+].[OH-]` [KOH, Potassium hydroxide], the “Surface Tension @ 51 ms” value ([1]; aqueous KOH 0.5 M) was 72.6 mN/m, the “Surface Tension @ 51 ms” value ([1]; aqueous KOH 1.0 M) was 73.6 mN/m and the “Surface Tension @ 51 ms” value ([1]; aqueous KOH 2.0 M) was 73 mN/m. The “Surface Tension @ 51 ms” value ([1]; aqueous KOH 3.0 M) was 76 mN/m, the “Surface Tension @ 51 ms” value ([1]; aqueous KOH 5.0 M) was 79.8 mN/m and the “Surface Tension @ 51 ms” value ([1]; aqueous KOH 8.7 M) was 86.9 mN/m.

For `CCCCCCCC[N+](C)(C)[O-]` [Octyl-N,N′-Dimethylamine Oxide], the “SFT (dynamic surface tension at 51 ms)” value ([1]; 2500 ppm surfactant, KOH 0 M) was 59.8 mN/m, the “SFT (dynamic surface tension at 51 ms)” value ([1]; 2500 ppm surfactant, KOH 0.18 M) was 56.5 mN/m and the “SFT (dynamic surface tension at 51 ms)” value ([1]; 2500 ppm surfactant, KOH 0.36 M) was 57 mN/m. The “SFT (dynamic surface tension at 51 ms)” value ([1]; 2500 ppm surfactant, KOH 0.53 M) was 56.3 mN/m, the “SFT (dynamic surface tension at 51 ms)” value ([1]; 2500 ppm surfactant, KOH 1.78 M) was 50.6 mN/m and the “SFT (dynamic surface tension at 51 ms)” value ([1]; 2500 ppm surfactant, KOH 2.67 M) was 44.4 mN/m. The “SFT (dynamic surface tension at 51 ms)” value ([1]; 2500 ppm surfactant, KOH 3.56 M) was 38.2 mN/m, the “SFT (dynamic surface tension at 51 ms)” value ([1]; 2500 ppm surfactant, KOH 4.46 M) was 34.5 mN/m and the “SFT (dynamic surface tension at 51 ms)” value ([1]; 2500 ppm surfactant, KOH 5.35 M) was 32.9 mN/m. The “SFT (dynamic surface tension at 51 ms)” value ([1]; 2500 ppm surfactant, KOH 5.53 M) was 30.7 mN/m, the “SFT (dynamic surface tension at 51 ms)” value ([1]; 2500 ppm surfactant, KOH 6.24 M) was 32.1 mN/m and the “SFT (dynamic surface tension at 51 ms)” value ([1]; 2500 ppm surfactant, KOH 6.59 M) was 32.1 mN/m. The “Surface tension reduction” value ([1]; 2500 ppm surfactant) was “does not provide or provides little surface tension reduction”, the “Surface tension change as the KOH concentration is increased” value ([1]; 2500 ppm surfactant) was “provides significant surface tension reduction” and the “Solubility in KOH solutions” value [2] was “no such limit”.

With `CCCCCCCCCCCCCC[N+](C)(C)[O-]` [Tetradecyl-N,N′-Dimethylamine Oxide, reference compound] the “SFT (dynamic surface tension at 51 ms)” value ([1]; 2500 ppm surfactant, KOH 0 M) was 43.1 mN/m, the “SFT (dynamic surface tension at 51 ms)” value ([1]; 2500 ppm surfactant, KOH 1 M) was 49.9 mN/m and the “SFT (dynamic surface tension at 51 ms)” value ([1]; 2500 ppm surfactant, KOH 5 M) was 80.6 mN/m. The “Surface tension reduction” value ([1]; 2500 ppm surfactant) was “do provide some surface tension reduction”, the “Surface tension change as the KOH concentration is increased” value ([1]; 2500 ppm surfactant) was “the surface tension increases” and the “Solubility in KOH solutions” value [2] was “not soluble”.
